Measurements from patent US12370255B2, “Peptide-based vaccines, methods of manufacturing, and uses thereof for inducing an immune response” (Barinthus Biotherapeutics North America, Inc., priority 2017, dated 2025).
“Also recorded” adds a separate entry of the source. *1 amine or outer side, *2 acyl side, *3 side chain or, on linkers, in order; H or OH if unused. Where a SMILES comes first, the peptide text is derived from it. Where no end group is shown, it is not given here. Side-chain parts run from the residue outwards. The star is where a group is joined. 2B = 1-(4-aminobutyl)-2-butyl-1H-imidazo[4,5-c]quinolin-4-amine, CCCCc1nc2c(N)nc3ccccc3c2n1CCCCN*; X2 = CCCCNc1nc(N)c2nc(O)n(Cc3ccc(C(=O)NCC(=O)NCCCn4nnc5c4-c4ccccc4N(*)Cc4ccccc4-5)cc3)c2n1; X1 = C1=C\c2ccccc2N(*)Cc2ccccc2/1; Suc = O=C(CCC(=O)[*:2])[*:1]

What was measured:
T cells = assay: T cell responses in vivo induced by peptide antigen conjugates; conditions: immunogenic compositions of peptide antigen conjugates
Excerpt: FIG. 37 discloses SEQ ID NOS 580-585, respectively, in order of appearance.
FIG. 38 discloses SEQ ID NOS 586-602, respectively, in order of appearance.
FIG. 39 discloses SEQ ID NOS 603-605 and 605, respectively, in order of appearance.
FIG. 40 discloses SEQ ID NOS 606-610, respectively, in order of appearance.
FIG. 41 discloses SEQ ID NOS 603-605, 103 and 611, respectively, in order of appearance.
FIG. 42 discloses SEQ ID NO: 104.
FIG. 45 discloses SEQ ID NOS 619, 620, 619, 621, 180 and 622, respectively, in order of appearance.

CD8 T cells = assay: antigen-specific CD8 T cell responses (% IFNg+ of total CD8 T cells) from whole blood of immunized mice; type: in vivo; conditions: native LP neoantigen admixed with pICLC; immunized days 0 and 14, day 28
Excerpt: Mice (N=5 per group) were immunized with different immunogenic compositions comprising peptide antigens (A) based on either the synthetic long peptide (LP, sometimes referred to as “SLP”) or the minimal CD8 T cell epitope (Min, sometimes referred to as ME) of the antigen Irgq derived from the MC38 tumor cell line either as the peptide antigen (A) alone admixed with the TLR-7/8a adjuvant; as the peptide antigen (A) linked to a hydrophobic molecule (H), W3, and admixed with the TLR-7/8a adjuvant; or as the peptide antigen (A) linked to a hydrophobic molecule (H) co-delivering a TLR-7/8a adjuvant, 2BXy3. Mice were immunized at days 0 and 14 and antigen-specific CD8 T cell responses (% IFNg+ of total CD8 T cells) were assessed from whole blood at days 0 and 25. Open circles indicate that the peptide antigen (A) was soluble (i.e. non-particulate), whereas closed circles indicate that the mice received a particulate immunogenic composition of the peptide antigen (A).
Mice (N=5 per group) were immunized with different immunogenic compositions comprising peptide antigens (A) based on either the synthetic long peptide (LP) or minimal CD8 T cell epitope (Min) of the antigen Cpne1 derived from the MC38 tumor cell line either as the peptide antigen (A) alone admixed with the TLR-7/8a adjuvant; as the peptide antigen (A) linked to a hydrophobic molecule (H), W3, and admixed with the TLR-7/8a adjuvant; or as the peptide antigen (A) linked to a hydrophobic molecule (H) co-delivering a TLR-7/8a adjuvant, 2BXy3. Mice were immunized at days 0 and 14 and antigen-specific CD8 T cell responses (% IFNg+ of total CD8 T cells) were assessed from whole blood at days 0 and 25. […]
Mice (N=5 per group) were immunized with immunogenic compositions comprising 4 unique peptide antigen conjugates delivering a distinct MC38 tumor derived minimal CD8 T cell epitopes (40 total epitopes) that were linked to either 2BXy5 or 2B5 hydrophobic molecules (H). Mice were immunized at days 0 and 14 and antigen-specific CD8 T cell responses (% IFNg+ of total CD8 T cells) were assessed from whole blood at day 24.

[1] = hydrodynamic behavior: water solubility, particle size by dynamic light scattering and turbidity in PBS pH 7.4; type: physicochemical; conditions: aqueous buffer at pH about 7.4
Excerpt: FIG. 4: Molecular weight and hydrodynamic behavior of peptide antigens (A) and peptide antigen conjugates delivering peptide antigens (A) comprised of either synthetic long peptides (SLP or “LP”) or minimal (“Min”) CD8 T cell epitopes derived from the MC38 tumor cell line. […] FIG. 4 discloses SEQ ID NOS 190-199, 623 and 200, respectively, in order of appearance. FIG. 18: Impact of peptide antigen conjugate net charge and hydrophobic molecule composition on hydrodynamic behavior. The hydrodynamic behavior of a range of different peptide antigen conjugates of Formula V at 0.1 mg/mL or 0.5 mg/mL in PBS at a pH of 7.4 was assessed by dynamic light scattering. […] Turbidity was determined by measuring the absorbance of the solution at 490 nm. […] (A) The impact of net charge on the hydrodynamic behavior of a range of different peptide antigen conjugates of Formula V suspended at 0.1 mg/mL or 0.5 mg/mL in PBS at a pH of 7.4 was assessed by dynamic light scattering. […] The hydrodynamic behavior of a range of different peptide antigen conjugates suspended at 0.1 mg/mL in PBS at a pH of 7.4 was assessed by dynamic light scattering. […] Particle size was assessed by dynamic light scattering with the peptide antigen conjugate suspended at 0.5 mg/mL in PBS at a pH of 7.4. […] Solubility can be determined by visual inspection, by turbidity measurements or by dynamic light scattering.

Row | Molecule | T cell responses in vivo (in words) (T cells) | CD8 T cell responses (in words) (CD8 T cells) | particle formation and stability (in words) [1]
1 | CCCCNc1nc(N)c2nc(O)n(Cc3ccc(C(=O)NCC(=O)NCCCn4nnc5c4-c4ccccc4N(C(=O)CCC(=O)NCCCCC(NC(=O)CNC(=O)CCC(=O)N4Cc6ccccc6/C=C\c6ccccc64)C(=O)NCC(=O)NC(Cc4c[nH]c6ccccc46)C(=O)NC(Cc4c[nH]c6ccccc46)C(=O)NC(Cc4c[nH]c6ccccc46)C(=O)NC(Cc4c[nH]c6ccccc46)C(=O)NC(Cc4c[nH]c6ccccc46)C(N)=O)Cc4ccccc4-5)cc3)c2n1 (centres unmarked) [Compound 30] ({X1-Suc}-GK([Suc-X2])GWWWWW-NH2; configuration not given here) | highest magnitude responses | – | –
2 | CCCCc1nc2c(N)nc3ccccc3c2n1CCCCNC(=O)CCC(NC(=O)C(Cc1c[nH]c2ccccc12)NC(=O)C(CCC(=O)NCCCCn1c(CCCC)nc2c(N)nc3ccccc3c21)NC(=O)C(Cc1c[nH]c2ccccc12)NC(=O)C(CCC(=O)NCCCCn1c(CCCC)nc2c(N)nc3ccccc3c21)NC(=O)CCC(=O)N1Cc2ccccc2-c2c(nnn2CCCCC(=O)NC(CCCCN)C(=O)NC(CCCCN)C(=O)NC(CCCCN)C(=O)NC(CCCCN)C(=O)NC(CCCCN)C(=O)NC(CCCCN)C(=O)NC(CCCCN)C(=O)NC(CCCCN)C(=O)NC(CCCCN)C(=O)NC(CCCCN)C(N)=O)-c2ccccc21)C(N)=O (centres unmarked) [Compound 42] | high magnitude T cell immunity | – | –
3 | Adpgk: native LP neoantigen from MC38 that assembles into particles; minimal epitope Ala-Ser-Met-Thr-Asn-Met-Glu-Leu-Met (ASMTNMELM) | – | significant increase in CD8 T cell responses over background; also recorded: immunogenic | –
4 | Compound 16 (GGE(2B)GGE(2B)GGE(2B)GGE(2B)GGE(2B); also: DBCO) | high magnitude T cell responses | – | formed stable nanoparticle micelles
5 | Compound 20 (KGWGWGKGWGWGKGWGWGKGWGWGKGWGWG; not fully specified (residues 1, 7, 13, 19, 25)) | high magnitude T cell responses | – | formed stable nanoparticle micelles
6 | Cpne1: native LP neoantigen derived from the MC38 tumor cell line, water soluble; minimal epitope Ser-Ser-Pro-Tyr-Ser-Leu-His-Tyr-Leu (SSPYSLHYL) | – | no CD8 T cell responses | –
